In US11674962B2, “Therapeutic and diagnostic methods for cancer” (Genentech, Inc., priority 2017, dated 2023):

Assays:
[1] = tested on: locally advanced or metastatic non-small cell lung cancer (NSCLC); assay: POPLAR phase II clinical trial (NCT01903993): atezolizumab vs docetaxel, outcomes by bTMB score; format: in vivo, human; conditions: bTMB≥16, per treatment arm
Protocol: (§1) A blood-based assay was used to evaluate the association between clinical response to treatment with atezolizumab (MPDL3280A) and blood tumor mutational burden (bTMB) score in patients with non-small cell lung cancer (NSCLC) enrolled in two clinical trials, a phase II clinical trial, POPLAR (Clinical Trial ID No.: NCT01903993), and a phase III clinical trial, OAK (Clinical Trial ID No.: NCT02008227), in which atezolizumab was administered as a monotherapy.
(§2) Pre-treatment blood samples from patients with NSCLC who were enrolled in the POPLAR and/or the OAK studies, in which atezolizumab was administered as a monotherapy, were evaluated for bTMB score and/or maximum somatic allele frequency (MSAF).
The POPLAR (Clinical Trial ID No.: NCT01903993) patient population evaluated for bTMB score consisted of 273 patients. Patients were eligible for enrollment in the POPLAR study if they had locally advanced or metastatic (e.g., stage IIIB, stage IV, or recurrent) non-small cell lung cancer (NSCLC); disease progression during or following treatment with a prior platinum-containing regimen for locally advanced, unresectable/inoperable, or metastatic NSCLC, or disease recurrence within 6 months of treatment with a platinum-based adjuvant/neoadjuvant regimen; measurable disease, as defined by RECIST v1.1; and an Eastern Cooperative Oncology Group (ECOG) performance status of 0 or 1. Participants were randomized to receive either atezolizumab at a dose of 1200 mg intravenously every three weeks or docetaxel 75 mg per meter square (mg/m^2) intravenously every three weeks. Treatment with atezolizumab could be continued as long as participants were experiencing clinical benefit, i.e., in the absence of unacceptable toxicity or symptomatic deterioration attributed to disease progression.
(§3) Analysis of bTMB was performed retrospectively. Progression-free survival (PFS) was defined as the time between date of randomization and date of first documented disease progression as assessed by the investigator using RECIST v.1.1 or death from any cause, whichever occurred first. Overall survival (OS) was defined as the time between the date of randomization until death due to any cause. Treatment arms were compared for OS and PFS individually using a univariate Cox regression model without stratification in the biomarker evaluable-population (BEP) and their subgroups or using a stratified (by randomization stratification factors) Cox model in the ITT population. No multiplicity correction was applied to p-values or confidence intervals (CI). Kaplan-Meier methodology was used to estimate median OS and PFS and construct survival curves.
In the POPLAR ITT population (N=287), 273 samples were available for analysis. Of these, 6 were removed for sample contamination >1%; 9 were removed for median exon coverage <800×; and 47 were removed for low MSAF<1%.
The POPLAR BEP (N=211) includes 15 patients with EGFR mutation or ALK rearrangement, and 196 without known alterations.
(§4) To identify somatic mutations and calculate a bTMB score, whole blood samples obtained from each patient (collected in EDTA or Streck tubes) were processed through a series of spins to isolate plasma, from which cell free DNA (cfDNA) was extracted for sequencing analysis. Specifically, at least 20 ng purified cfDNA was used for library construction. Next-generation sequencing libraries using fragment barcodes and hybrid capture were constructed to analyze and sequence a pre-determined set of 394 genes that covered approximately 1.125 Mb of the exome. Specifically, purified libraries were hybrid captured using a 394-gene bait set and then further purified, pooled and loaded on an ILLUMINA® HISEQ® 4000 sequencing system. Sequenced libraries were aligned and sorted. […]

[2] = tested on: locally advanced or metastatic non-small cell lung cancer (NSCLC); assay: OAK phase III clinical trial (NCT02008227): atezolizumab vs docetaxel, outcomes by bTMB score and PD-L1 IHC; format: in vivo, human; conditions: OAK
Protocol: as §1, §2
The OAK (Clinical Trial ID No.: NCT02008227) patient population evaluated for bTMB score consisted of 583 patients. Patients were eligible for enrollment in the OAK study if they had locally advanced or metastatic (e.g., stage IIIB, stage IV, or recurrent) NSCLC; disease progression during or following treatment with a prior platinum-containing regimen for locally advanced, unresectable/inoperable, or metastatic NSCLC, or disease recurrence within 6 months of treatment with a platinum-based adjuvant/neoadjuvant regimen; measurable disease, as defined by RECIST v1.1; and an ECOG performance status of 0 or 1. Participants were randomized to receive either atezolizumab at a dose of 1200 mg intravenously every three weeks or docetaxel 75 mg per square meter (mg/m^2) intravenously every three weeks. Treatment with atezolizumab could be continued as long as participants were experiencing clinical benefit, i.e., in the absence of unacceptable toxicity or symptomatic deterioration attributed to disease progression.
as §3
In the OAK ITT population (N=850), 797 samples were available for analysis. Of these samples, 13 were removed for sample contamination >1%; 42 were removed for median exon coverage <800×; and 100 were removed for low MSAF<1%.
The OAK BEP (N=642) included 59 patients with EGFR mutation or ALK rearrangement, and 583 without known alterations.
as §4, with “sorted. In order to accurately call variants at low allele frequencies and minimize artifacts from sequencing, PCR, or DNA damage-related errors, sequenced libraries were processed by a cfDNA computational pipeline that corrected errors via the use of fragment barcodes.” for “sorted.”

CC(=O)O[C@@]12CO[C@@H]1C[C@H](O)[C@@]1(C)C(=O)[C@H](O)C3=C(C)[C@@H](OC(=O)[C@H](O)[C@@H](NC(=O)OC(C)(C)C)c4ccccc4)C[C@@](O)([C@@H](OC(=O)c4ccccc4)[C@H]21)C3(C)C [docetaxel] was tested, and the “median OS” value [1] was 7.4 months, the “median PFS” value [1] was 2.9 months and the “median OS” value ([2]; bTMB≥16, per treatment arm) was 6.8 months. The “best overall response rate” value ([2]; bTMB≥16 patients, per treatment arm) was 10%.
